Measurements published in patent publication US9868717B2, “Tricyclic sulphonamide compounds and methods of making and using same” (Zafgen, Inc., priority 2012, dated 2018).

What follows are compounds tested against T1, Human recombinant MetAP2 (Homo sapiens, UniProt P50579) (assay: inhibition of recombinant human MetAP2 activity (MAS substrate, amino acid oxidase/Amplex red fluorescence)). Conditions: manganese enzyme, 30 minutes at 25° C., pH 7.5, 0.75 mM MAS substrate, 1% DMSO.
T1 construct: made in house; host or cells: Sf9 insect cells
Assay type: biochemical
Procedure: Compounds are tested for their capacity to inhibit recombinant human MetAP2 activity using the following assay.
Human recombinant MetAP2 expressed in Sf9 cells followed by affinity purification and EDTA treatment to remove endogenous active site cation was dialysed against MnCl2 to produce the manganese enzyme used in the assay. The assay was carried out for 30 minutes at 25° C. in 50 mM HEPES buffer containing 100 mM NaCl, pH 7.5 the presence of 0.75 mM Methionine-Alanine-Serine (MAS) substrate and 50 μg/ml amino acid oxidase using a dilution of purified MetAP2 giving >3-fold signal:noise. Cleavage of the substrate by MetAP2 and oxidation of free methionine by amino acid oxidase was detected and quantified using fluorescence generated by Amplex red (10-acetyl-3,7-dihydroxyphenoxazine) in combination with horseradish peroxidase which detects H2O2 released during the oxidation step. The fluorescent signal was detected using a multiwell fluorimeter. Compounds were diluted in DMSO prior to addition to assay buffer, the final DMSO concentration in the assay being 1%.
The IC50 is defined as the concentration at which a given compound achieves 50% inhibition of control. IC50 values are calculated using the XLfit software package (version 2.0.5).

T1 sequence (P50579 whole entry): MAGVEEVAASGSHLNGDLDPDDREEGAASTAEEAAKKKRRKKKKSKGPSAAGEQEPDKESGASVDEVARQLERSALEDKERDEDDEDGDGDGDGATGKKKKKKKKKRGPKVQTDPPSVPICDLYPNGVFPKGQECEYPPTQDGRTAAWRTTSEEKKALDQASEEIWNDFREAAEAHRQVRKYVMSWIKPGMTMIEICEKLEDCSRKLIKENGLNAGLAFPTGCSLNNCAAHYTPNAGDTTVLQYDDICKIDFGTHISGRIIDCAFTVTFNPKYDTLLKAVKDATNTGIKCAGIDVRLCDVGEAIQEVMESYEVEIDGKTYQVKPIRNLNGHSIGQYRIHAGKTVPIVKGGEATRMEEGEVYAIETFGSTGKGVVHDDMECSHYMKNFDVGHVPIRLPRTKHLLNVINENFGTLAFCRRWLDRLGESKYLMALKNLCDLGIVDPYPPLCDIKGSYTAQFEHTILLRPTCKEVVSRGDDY

Compound | IC50 [µM]
O=C(O)c1c(NS(=O)(=O)c2ccc(F)cc2/C=C2/CN3CCC2CC3)ccc2c1OC[C@@H]1C[C@H]21 (single isomer, unassigned) [Example 11] | < 0.05
O=C(O)c1c(NS(=O)(=O)c2ccc(F)cc2C[C@@H]2CCNC2)ccc2c1OC[C@@H]1C[C@H]21 [Example 6, (1aR,7bS)-5-[4-Fluoro-2-((R)-pyrrolidin-3-ylmethyl)benzenesulfonylamino]-1,1a,2,7b-tetrahydrocyclopropa[c]chromene-4-carboxylic acid] | < 0.05
O=C(O)c1c(NS(=O)(=O)c2ccc(F)cc2/C=C2\CN3CCC2CC3)ccc2c1OC[C@@H]1C[C@H]21 (single isomer, unassigned) [Example 10] | < 0.05

Results, then the compound that gave them:

IC50 [µM] | Compound
< 0.05 | CCN1CC[C@H](C(=O)NCc2cc(F)ccc2S(=O)(=O)Nc2ccc3c(c2C(=O)O)OC[C@@H]2C[C@H]32)C1 [Example 32, (1aR,7bS)-5-{2-[((S)-1-ethylpyrrolidine-3-carbonyl)aminomethyl]-4-fluoro-benzenesulfonylamino}-1,1a,2,7b-tetrahydrocyclopropa[c]chromene-4-carboxylic acid-formic acid (1:1)]
< 0.05 | O=C(O)c1c(NS(=O)(=O)c2ccc(F)cc2/C=C\[C@@H]2CCCN2)ccc2c1OC[C@@H]1C[C@H]21 [Example 24, (1aR,7bS)-5-{4-Fluoro-2-[(Z)-2-((S)-pyrrolidin-2-yl)ethenyl]benzenesulfonyl-amino}-1,1a,2,7b-tetrahydrocyclopropa[c]chromene-4-carboxylic acid]
< 0.05 | CC1(O)CCN(C/C=C\c2cc(F)ccc2S(=O)(=O)Nc2ccc3c(c2C(=O)O)OC[C@@H]2C[C@H]32)C1 (stereo partly drawn) [Example 20, (1aR,7bS)-5-{4-Fluoro-2-[(Z)-3-(3-hydroxy-3-methylpyrrolidin-1-yl)prop-1-enyl]benzenesulfonylamino}-1,1a,2,7b-tetrahydrocyclopropa[c]chromene-4-carboxylic acid]
